Measured values as given in publication PMC11042424, “Development of a First-in-Class RIPK1 Degrader to Enhance Antitumor Immunity” (Research Square, 2024).

How the values were obtained:
[1] = test system: B16F10 cells; test: TNFα-mediated apoptosis in B16F10 cells; assay type: cell-based, mouse; conditions: 1 μM, TNFα 100 ng/mL, 72 hours
Excerpt: Figure 3 LD4172 sensitizes B16F10 cells to TNFα-mediated apoptosis. A, Representative flow cytometry dot plots of apoptosis. In all four plots, viable cells are seen in the left lower quadrant (FITC-/PI-), early apoptotic cells in the right lower quadrant (FITC+/PI-), and late apoptotic cells in the right upper quadrant (FITC+/PI+). B, Representative images of PI (red) and caspase 3/7 (Cas3/7+, green) staining of B16F10 cells. Cell death assessed by PI uptake using Cytation 5 imager. C, Western blots for the expression of cleaved caspase3, cleaved caspase7, and cleaved PARP in B16F10 cells. D, Quantification of extracellular ATP level. Western blots for the expression of HMGB1 and calreticulin in B16F10 cells. E, Immunofluorescence staining of HMGB1 in B16F10 cells. B16F10 cells were treated in the presence or absence of TNFα (100 ng/mL), Z-VAD-FMK (25 μM), LD4172 (1 μM), and/or T2I (1 μM) as indicated for 72 hours. Data are representative of three independent experiments. Error bars represent SD.
Apoptosis quantification was conducted utilizing a FITC-conjugated Annexin V/PI assay kit (556547, BD Biosciences) and analyzed through flow cytometry. Briefly, 2×10^5 of B16F10 cells were seeded onto six-well plates and treated as specified for 72 hours at 37°C. Treated and untreated cells were harvested, washed with PBS, and resuspended in 100 μl of binding buffer. […]

[2] = Stability in human primary hepatocytes; assay type: in vitro ADME
[3] = Plasma protein binding; assay type: in vitro ADME; conditions: read-out: bound to plasma proteins (converted)
[4] = test system: B16F10 tumors; test: Five-day treatment of B16F10 tumors: cell death and tumor immune microenvironment; assay type: in vivo, C57BL/6J mice
Excerpt: Figure 5 LD4172 alters the tumor immune microenvironment. A. Representative immunofluorescent images depict RIPK1, Calreticulin, CD8, CD4, Foxp3, or F4/80, as well as hematoxylin and eosin (H&E) images, alongside representative images illustrating cleaved caspase3/7 levels in B16F10 tumors under the indicated treatment for five days. n = 4–6 independent fields per group. Scale bars are shown as follows: 20 μm, objective 60X; 200 μm, objective 60X. B. The mouse plasma HMGB1 level from different treatment groups (n=8). C-G. Flow cytometry quantification of PD1+CD8+ T cells (C), CD4+ T cells (D), cDC cells (E), macrophages (F), and CD8+ T cells (G) in B16F10 tumors following 5 days of indicated treatment (n = 10/group). H. Flow cytometric quantification of IFNγ+ CD8+ T cells in B16F10 tumors treated with the indicated treatments for 5 days and stimulated with PMA/ionomycin in vitro for 6 h (n = 10/group). I. Tumor volume (mm3) of vehicle-, anti-PD1-, LD4172-, anti-PD1+LD4172-, and anti-PD1+LD4172+anti-CD8–treated B16F10 tumors (n=8). J. Heat map showing log 10-fold changes in the concentration of mouse plasma cytokines normalized by the mean value of control mice (n=8). For all experiments: LD4172: 20 mg/kg; anti-PD1 antibody: 100 μg/mice; Combo: LD4172 plus anti-PD1. Representative data from at least three independent experiments are shown. Data are expressed as the mean ± SEM. * p<0.05; ** p<0.01; *** p<0.001; **** p<0.0001, respectively. “ns” indicates no statistical significance.
Tumors were collected on day 13, weighed, mechanically diced, and digested with liberase (2 mg/mL, 05401020001, Roche) and DNase I (50 μg/mL, 11284932001, Sigma-Aldrich) at 37°C for 30 minutes with rotation. Single-cell suspensions were obtained by filtering the digested tissues through a 45 μm strainer, after which erythrocytes were removed using 1x RBC lysis buffer (420301, Biolegend). To stain the cell surface markers of tumor-infiltrating lymphocytes (TILs), single-cell suspensions were blocked with anti-mouse CD16/32 (156603, BioLegend) for 10 minutes on ice, and then incubated with fluorochrome-labeled antibodies diluted with staining buffer (1:50, PBS, 2% FBS, 0.1% EDTA) for 30 minutes on ice in the dark. Dead cells were excluded using DAPI (1:1,000, BioLegend). After washing, cells were resuspended in 300–500 μL staining buffer for flow cytometry analysis. For intracellular cytokine staining, cells were incubated in culture medium (RPMI-1640, 10% FBS, Brefeldin A or Cell Activation Cocktail (with Brefeldin A)) at 37°C for 6 h. Cells were stained with eBioscience™ Fixable Viability Dye eFluor™ 450, TruStain FcX™ PLUS and surface CD45, CD3ε, CD8a. Cells were fixed-permeabilized by Intracellular Fixation & Permeabilization Buffer Set (Biolegend, 421403) according to the manufacturer’s protocol. Then cells were stained with anti-IFNγ (XMG1.2) for 1 hour at room temperature (RT). Cells were resuspended in FACS buffer and subjected to BD LSR-II for analysis.
Mouse serum was analyzed using multiplex immunoassays designed for mice (Mouse Cytokine Array / Chemokine Array 31-Plex (MD31) from Eve Technologies), with 8 replicates from each group. Heatmaps display relative cytokine expression values normalized to vehicle-treated samples. Serum HMGB1 was analyzed by ELISA (NOVUS, NBP2–62767) according to the manufacturer’s protocol.
For H&E staining, the hydrated slides were stained with hematoxylin and eosin. For IHC analysis, after hydration, the sections were subjected to antigen retrieval by incubating in citrate buffer (pH 6.0), Tris EDTA buffer (pH 9.0), or EDTA buffer (pH 8.0) at 121°C for 15 minutes. Endogenous peroxidase was blocked with 3% H2O2 in PBS, and non-specific binding was blocked with 2.5% normal serum for 1 hour at room temperature. The sections were then incubated with the respective primary antibodies overnight at 4°C. […]

**Q.** With `Cc1ncsc1-c1ccc([C@H](C)NC(=O)[C@@H]2C[C@@H](O)CN2C(=O)[C@@H](NC(=O)CCCCCCCCCCC(=O)NCCCn2cc(-c3ccc4c(c3)CCN4C(=O)Cc3cccc(OC(F)(F)F)c3)c3c(N)ncnc32)C(C)(C)C)cc1` [LD4172] as the compound, how does the “cell death / apoptosis in combination with TNFα” value [1] read?
**A.** The value was “significant cell death”.

**Q.** What about the half-life [2] of the same compound?
**A.** The half-life was 56.3 min.

**Q.** And the fraction unbound [3]?
**A.** Its fraction unbound is 0.014.

**Q.** What about the “RIPK1 degradation in the tumor” value ([4]; 20 mg/kg) of the same compound?
**A.** Its value is “substantial degradation of RIPK1”.

**Q.** And the “cell death in the tumor (H&E)” value ([4]; 20 mg/kg)?
**A.** Its value is “significant cell death”.

**Q.** What about the “cleaved caspase 3/7 levels in tumors” value ([4]; 20 mg/kg) of the same compound?
**A.** The value was “notable increase”.

**Q.** And the “plasma HMGB1 levels” value ([4]; 20 mg/kg)?
**A.** The value was “significant increase”.

**Q.** And the “CD4 + T cells, conventional dendritic cells and macrophages within the TME” value ([4]; 20 mg/kg, flow cytometry)?
**A.** The value was “notable expansion”.

**Q.** And the “cytotoxic CD8 + T cells within the TME, combined with anti-PD1” value ([4]; LD4172 20 mg/kg plus anti-PD1 100 μg)?
**A.** The value was “increased infiltration”.
